Test systems include UACC-62 melanoma; NCI-H23 lung; NCI-H226 lung; OVCAR-8 ovarian; SN12C renal; SW-620 colon; IGROV1 ovarian; CCRF-CEM leukemia; SF-539 CNS; MDA-MB-231 breast.
Holding throughout (test): inhibition of tumour cell growth, NCI panel, 48 h

Structures are written as SMILES.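 All cell lines were grown in 96-well plates and treated with compound for 48 hours. Here, GI50 denotes the concentration required for 50% inhibition of growth. Definition used: TGI = concentration required for complete inhibition of growth.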

Consider `COc1ccc(C2=NOP(c3ccccc3)(c3ccccc3)(c3ccccc3)C2)cc1`, for which the TGI is 53.2 µM in the assay with UACC-62 melanoma; more than 72.5 µM with NCI-H23 lung; 98.4 µM in the assay with NCI-H226 lung; more than 92.7 µM with OVCAR-8 ovarian; more than 100 µM in the assay with SN12C renal; more than 56.2 µM in the assay on SW-620 colon. For the same compound, the TGI in the assay on IGROV1 ovarian is more than 100 µM; with CCRF-CEM leukemia it was 39.6 µM; with SF-539 CNS it was more than 100 µM.
Turning to `CC1=C(C(=O)Nc2ccccc2)C(c2ccc(C(C)C)cc2)C(C(=O)Nc2ccccc2)=C(C)N1`, the TGI with UACC-62 melanoma was 35 µM; with NCI-H23 lung, more than 58.5 µM; with NCI-H226 lung, 54.9 µM; in the assay on OVCAR-8 ovarian it was more than 66.3 µM; in the assay with SN12C renal, 27.8 µM; in the assay on SW-620 colon, 41.5 µM. For the same compound, the TGI with IGROV1 ovarian is more than 100 µM; with CCRF-CEM leukemia, 75.2 µM; with SF-539 CNS, 17.6 µM.
For the compound `Cc1ccc(NC(=O)CCC(=O)C(C#N)c2ccccc2)cc1C` (stereo unspecified), the TGI in the assay on UACC-62 melanoma, in the assay on NCI-H23 lung, in the assay on NCI-H226 lung, with OVCAR-8 ovarian, in the assay on SN12C renal and in the assay on SW-620 colon was more than 100 µM in each case. For the same compound, the TGI in the assay with IGROV1 ovarian, in the assay on CCRF-CEM leukemia and with SF-539 CNS was more than 100 µM each time.
For `CC(=O)O[C@H]1C=CC23OC(=O)[C@]1(C)[C@H]2[C@H](C(=O)O)C12CC(=O)[C@@](CO)(CC[C@H]13)C2`, the TGI with UACC-62 melanoma, in the assay on NCI-H23 lung, with NCI-H226 lung, in the assay on OVCAR-8 ovarian, in the assay with SN12C renal and with SW-620 colon was more than 100 µM throughout. Moreover, the TGI in the assay on IGROV1 ovarian, with CCRF-CEM leukemia and in the assay with SF-539 CNS was more than 100 µM throughout.
As for `CN(C)CC1CCCC/C1=N/OC(=O)c1ccc(Cl)c(Cl)c1` (stereo unspecified), the TGI in the assay on UACC-62 melanoma, with NCI-H23 lung, with NCI-H226 lung, with OVCAR-8 ovarian, in the assay with SN12C renal and in the assay on SW-620 colon was more than 100 µM each time. For the same compound, the TGI with IGROV1 ovarian, with CCRF-CEM leukemia and in the assay with SF-539 CNS was more than 100 µM throughout.
Turning to `COC(=O)C1CC(C(=O)OC)c2nc3cc(C)c(C)cc3nc21` (stereo unspecified), the TGI in the assay with UACC-62 melanoma, in the assay with NCI-H23 lung, in the assay with NCI-H226 lung, in the assay on OVCAR-8 ovarian, with SN12C renal and in the assay with SW-620 colon was more than 100 µM each time. Also, the TGI in the assay with IGROV1 ovarian, in the assay with CCRF-CEM leukemia and in the assay with SF-539 CNS was more than 100 µM throughout.
As for `Cc1nnc(-c2ccc(-c3nc4ccccc4o3)cc2)o1`, the GI50 with UACC-62 melanoma is 36.8 µM; with NCI-H23 lung it was more than 100 µM; in the assay on MDA-MB-231 breast, 36.3 µM; with OVCAR-8 ovarian, 85.6 µM; in the assay with SN12C renal, more than 100 µM; in the assay on SW-620 colon, more than 100 µM. Also, the GI50 in the assay with IGROV1 ovarian and in the assay on SF-539 CNS was more than 100 µM in each case. For the same compound, the TGI in the assay with UACC-62 melanoma, in the assay with NCI-H23 lung, with MDA-MB-231 breast, in the assay on OVCAR-8 ovarian, in the assay on SN12C renal and in the assay on SW-620 colon was more than 100 µM each time. Further, the TGI with IGROV1 ovarian and with SF-539 CNS was more than 100 µM each time.
With `COc1ccc(C(=O)O/N=C2/CCC/C2=C\c2ccccc2)cc1`, the TGI in the assay on UACC-62 melanoma, with NCI-H23 lung, in the assay on NCI-H226 lung, with OVCAR-8 ovarian, in the assay on SN12C renal and with SW-620 colon was more than 100 µM throughout. Also, the TGI with IGROV1 ovarian is more than 100 µM; in the assay on CCRF-CEM leukemia, more than 100 µM; with SF-539 CNS, 99.6 µM.
Turning to `COC(=O)Cc1nc2ccccc2o1`, the TGI is 49.3 µM with UACC-62 melanoma; more than 100 µM in the assay with NCI-H23 lung; more than 100 µM in the assay on NCI-H226 lung; more than 100 µM in the assay on OVCAR-8 ovarian; more than 100 µM with SN12C renal; more than 100 µM in the assay on SW-620 colon. In addition, the TGI with IGROV1 ovarian, in the assay with CCRF-CEM leukemia and with SF-539 CNS was more than 100 µM throughout.
As to `Nc1nc(N)c(-c2ccccc2)c(CCC(=O)Nc2ccc(Cl)cc2)n1`, the TGI with UACC-62 melanoma, in the assay with NCI-H23 lung, in the assay with NCI-H226 lung, in the assay on OVCAR-8 ovarian, with SN12C renal and with SW-620 colon was more than 100 µM in each case. In addition, the TGI in the assay on IGROV1 ovarian, with CCRF-CEM leukemia and in the assay with SF-539 CNS was more than 100 µM in each case.
For `CCOC(=O)/N=c1/nc(N(C)C)ss1`, the TGI with UACC-62 melanoma, in the assay on NCI-H23 lung, with NCI-H226 lung, in the assay with OVCAR-8 ovarian, in the assay on SN12C renal and in the assay with SW-620 colon was more than 100 µM throughout. Besides, the TGI in the assay on IGROV1 ovarian, with CCRF-CEM leukemia and in the assay with SF-539 CNS was more than 100 µM each time.

(Values after PubChem BioAssay (NCI).)
